The results in this text go back to patent publication US5840867A, “Aptamer analogs specific for biomolecules” (Gilead Sciences, Inc., priority 1994, dated 1998).

For series [1], the system named is thrombin. Nature of the series: Clotting time for thrombin-catalyzed conversion of fibrinogen to fibrin. Particulars: 7-mer at 20 μM; thrombin 10 nM; thrombin alone 24 sec. The series is classed as biochemical. The procedure:
Clotting time for the thrombin-catalyzed conversion of fibrinogen (2.0 mg/ml in selection buffer) to fibrin at 37° C. was measured using a precision coagulation timer apparatus (Becton-Dickinson, Cat. Nos. 64015, 64019, 64020). Thrombin (10 nM) incubated with fibrinogen alone clotted in 40 sec, thrombin incubated with fibrinogen and P1 nuclease (Boehringer-Mannheim, Indianapolis, Ind.) clotted in 39 sec, thrombin incubated with fibrinogen and aptamer clone #5 (200 nM) clotted in 115 sec, and thrombin incubated with fibrinogen, clone #5 (200 nM) and P1 nuclease clotted in 40 sec. All incubations were carried out at 37° C. using reagents prewarmed to 37° C. Aptamer DNA or, when present, P1 nuclease, was added to the fibrinogen solution prior to addition of thrombin.
Inhibition of thrombin activity was studied using a consensus-related sequence 7-mer, 5' GGTTGGG 3' (SEQ ID NO:15), or a control 7-mer with the same base composition but different sequence (5' GGGGGTT 3' ) (SEQ ID NO:16). Clotting times were measured using the timer apparatus as above. The thrombin clotting time in this experiment was 24 sec using thrombin alone (10 nM), 26 sec with thrombin and the control sequence at 20 μM and 38 sec with thrombin plus the consensus sequence at 20 μM, indicating specificity for thrombin inhibition at the level of the 7-mer.

The subject of another series is human thrombin. Nature of the series: Thrombin clotting-time assay on rat plasma after injection. The series is classed as in vivo. Conditions: rats, injected through catheter. The procedure:
(§1) A 15-mer single-stranded deoxynucleotide, 5' GGTTGGTGTGGTTGG 3' (SEQ ID NO:19), identified as a consensus sequence from 30 thrombin aptamer clones as described in Example 4 above was used. Young adult rats of mixed gender and strain were used. The animals were anesthetized and a diester of the 15-mer was injected through a catheter in 200 μl volumes (in 20 mM phosphate buffer, pH 7.4, 0.15M NaCl) at two concentrations, so that the final concentration of 15-mer in the blood was about 0.5 and 5.0 μM respectively, although the exact concentration depends on the volume of distribution which is unknown for this oligonucleotide. These values are 10 to 100 times greater than the human in vitro Kd value. No heparin was used for catheterization.
(§2) At 0, 5, 20 and 60 minutes, blood was withdrawn from the animals (approx. 500 μl aliquots) and transferred into tubes containing 0.1 volume citrate buffer and centrifuged. Rat plasma was removed and tested in a thrombin clotting-time assay. Six animals were used at each concentration,and three animals were injected with the control carrier solution containing no 15-mer.

Series [2] concerns thrombin. Nature of the series: Steady-state inhibition kinetics by clotting time assay (Ki). The series is classed as biochemical. Conditions: constant thrombin, varying fibrinogen concentration. The procedure:
The inhibition constants (Ki s) and mode of inhibition of the aptamer analogs were determined through steady-state inhibition kinetics using a clotting time assay with constant thrombin concentration and varying the fibrinogen concentration in the presence of aptamer, control DNA, or no DNA. […] The data is consistent with a non-competitive mode of inhibition.

A further series can be described thus: Half-life in rats. The series is classed as in vivo, rat. Conditions: injected through catheter. The procedure:
as §1, §2
(§3) Thus, the 15-mer in blood withdrawn from rats 5 minutes post-injection was able to inhibit exogenously added human thrombin. […] The half-life of the 15-mer in rats appears to be about 5 minutes or less.

Series [3] relates to thrombin. Nature of the series: Extent of thrombin inhibition with varying DNA concentration. The series is classed as biochemical. An excerpt:
Independent verification of the Ki for the nonmodified 15-mer was made by determining the extent of thrombin inhibition with varying DNA concentration.

The subject of another series is rat blood coagulation. Nature of the series: APTT test after injection in rats. Conditions: 5 minute time point. The series is classed as in vivo. The procedure: as §3

pKi: −log10 of the molar value.

For “5' GGGGGTT 3' (chemistry not given here) [reference compound]”, the Clotting time in the series on thrombin [1] amounted to 26 s.

The substance “5' GGTTGGG 3' (chemistry not given here)” registered a Clotting time in the series on thrombin [1] of 38 s.

5' GGTTGGTGTGGTTGG 3': in the series on human thrombin (about 0.5 and 5.0 μM in blood, 5 minute time point), the “clotting time of rat plasma” value is recorded as “prolonged clotting time”. Also, the “activity in clotting-time assay of rat plasma” value in the series on human thrombin (20 minutes) is “Little or no activity”. The same substance had a pKi in the series with thrombin [2] of 7.70. The substance also came in with a half-life in “Half-life in rats” of at most 5 min. Moreover, the “concentration giving 50% inhibition of thrombin activity” value in the series with thrombin [3] was “approximately the same concentration as the derived Ki”. Besides, the APTT test result with rat blood coagulation is given as “inhibited rat blood coagulation”.

Substance G*G*T*T*G*G*T*G*T*G*G*T*T*G*G showed a pKi in the series on thrombin [2] of 6.55.

In the case of “GG(dU)TGGTGTGG(dU)TGG (DNA GGNTGGTGTGGNTGG) [15-mer thrombin aptamer analog with uracil (dU) in place of thymine]”, the pKi with thrombin [2] is 7.10.

On to “GGTTGG(dU)G(dU)GGTTGG (DNA GGTTGGNGNGGTTGG; dU in place of thymine) [15-mer thrombin aptamer analog with uracil (dU) in place of thymine]”, for which, in the series on thrombin [2], the pKi was 7.82.

In the series on thrombin [2], GGTTGGTGTGGTT*G*G had a pKi of 7.40.

As for “GGTTGGTGTGGTTGG#G#T (DNA GGTTGGTGTGGTTGGGT; MEA linkages, chemistry not fully specified) [closely related 17-mer thrombin aptamer analog; # indicates a MEA linkage]”, the pKi in the series on thrombin [2] is 7.46.

Take “GGTTGGTGTGGTU'GG (DNA GGTTGGTGTGGTNGG; 5-pentynyluracil, further chemistry not given here) [15-mer thrombin aptamer analog; U' indicates 5-pentynyluracil]”: the pKi with thrombin [2] is 7.70.

In general, pKi refers to the Ki on a negative log10 scale, so that one unit is a factor of ten. Lower therefore signals a large Ki. A word on the half-life: it is how long it takes for the measured level to halve.
